Key:
[1] = Intracerebroventricular (lateral ventricle) infusion at low flow rates, distribution tracked by MRI; type: in vivo, rhesus monkey; conditions: ICV
Procedure: (§1) CADD ambulatory infusion pumps were used to deliver gadolinium (Gd) labeled diethylene triamine pentaacetic acid (DTPA) or Gd-labeled albumin to rhesus monkeys, either intrathecally or intracerebroventricularly. Distribution of the Gd-labeled agents was tracked in-life via magnetic resonance imaging (MRI).
(§2) For the Gd-DTPA studies, various concentrations of the Gd-DTPA were administered. The Gd-DTPA was administered intrathecally at L2 or intracerebroventricularly via a lateral ventricle at a variety of flow rates. Within a given monkey various flow rates were tested, followed by a washout period with phosphate buffered saline (PBS). An example study design that was used is presented below in Table 2:
Referring now to FIGS. 8A-F, MM images of a rhesus monkey receiving various concentrations of Gd-DPTA intracerebroventricularly at various flow rates are shown. FIG. 8A is an MRI image of a monkey receiving PBS prior to infusion of the Gd-DPTA. FIG. 8B is an MM image of a monkey receiving 486 mg/ml at 0.048 ml/day. FIG. 8C is an MRI image of a monkey receiving 280 mg/ml at 0.1 ml/day. FIG. 8D is an MRI image of a monkey receiving 70 mg/ml at 0.4 ml/day. FIG. 8E is an MRI image of a monkey receiving 35 mg/ml at 0.8 ml/day. FIG. 8F is an MM image of a monkey receiving 22 mg/ml at 1.2 ml/day. […] Accordingly, broad distribution appears to be achievable at low flow rates, regardless of the CSF site of administration.
Referring now to FIGS. 11A-F, MRI images of a rhesus monkey receiving various concentrations of Gd-albumin intracerebroventricularly at various flow rates are shown. FIG. 11A is an MM image of a monkey receiving PBS prior to infusion of the Gd-albumin. FIG. 11B is an MM image of a monkey receiving 100 mg/ml at 0.1 ml/day at one day of infusion. FIG. 11C is an MRI image of a monkey receiving 100 mg/ml at 0.4 ml/day at one day of infusion. FIG. 11D is an MRI image of a monkey receiving 100 mg/ml at 0.4 ml/day at three days of infusion. FIG. 11E is an MRI image of a monkey receiving 100 mg/ml at 0.8 ml/day at one day of infusion. FIG. 11F is an MRI image of a monkey receiving 64 mg/ml at 1.2 ml/day at one day of infusion.

[2] = Infusion into the CSF at low flow rates (IT or ICV), overall statements on distribution; type: in vivo, rhesus monkey
From the text: as §1

[3] = Intrathecal (L2) infusion at low flow rates, distribution tracked by MRI; type: in vivo, rhesus monkey
Procedure: as §1, §2
While not detectable at lower concentrations, it is believed that the distribution of the lower concentration agent was similar to that observed at the 70 mg/ml concentration at similar flow rates. […] FIG. 6A is an MRI image of the same monkey prior to infusion of Gd-DTPA.
For the Gd-albumin studies, various concentrations of the Gd-albumin were administered intrathecally at L2 at various flow rates. FIGS. 9A-E are MRI images of rhesus monkeys receiving intrathecal Gd-albumin.

[4] = humans, intrathecal, constant rate of 0.5 ml/day; cited from earlier work

Structure (SMILES) | steady state distribution in the CSF ([1]; 0.048 mL/day) | steady state distribution in the CSF ([1]; 0.1 mL/day) | distribution within the CSF ([1]; 0.1 mL/day for a period of 6 hours) | distribution in the CSF (FIG. 8) ([1]; flow rates of about 0.05 ml/day or greater, 22-486 mg/ml) | distribution following infusion into the CSF [2] | uptake by brain tissue (FIG. 7B) ([3]; IT L2, 70 mg/ml, 2.4 ml/day) | distribution around the spinal cord (FIG. 7D) ([3]; IT L2, 70 mg/ml, 2.4 ml/day, steady state) | distribution in the CSF (FIG. 6) ([3]; IT L2, all flow rates of about 0.4 ml/day or greater) | distribution in the CSF ([3]; IT, 0.1 mL/day) | distribution in the CSF ([3]; IT, 0.4 mL/day, 70 mg/ml) | detectability by MRI ([3]; IT, 0.4 mL/day, lower concentrations (17.5 mg/ml, 5.8 mg/ml, 2.9 mg/ml)) | MRI signal intensity ([3]; IT, 2.4 ml/day (100 microliters per hour)) | supraspinal side effects [4]
O=C([O-])CN(CCN(CC(=O)[O-])CC(=O)O)CCN(CC(=O)[O-])CC(=O)O.[Gd+3] [Gd-DTPA, gadolinium (Gd) labeled diethylene triamine pentaacetic acid (DTPA)] | evident in the CSF compartments in and around the brain, but not the spinal cord | complete CSF coverage | distributed broadly throughout the CSF in and around the brain and spinal cord | broadly distributed in the CSF, including in the intrathecal space | broadly distributed | appears to be taken up by the parenchymal tissue of the brain | distributed in a circumferential manner around the intrathecal space | broad distribution was observed | confined the molecule in the IT space | broadly distributed throughout the CSF | not appreciably detectable by MRI | signal was most intense | –
CN1CC[C@]23c4c5ccc(O)c4O[C@H]2[C@@H](O)C=C[C@H]3[C@H]1C5 [morphine] | – | – | – | – | – | – | – | – | – | – | – | – | do not appear to suffer from any supraspinal side effects
NCC(CC(=O)O)c1ccc(Cl)cc1 (centres unmarked) [baclofen] | – | – | – | – | – | – | – | – | – | – | – | – | do not appear to suffer from any supraspinal side effects
